Like-named read-outs stand apart in the source and are kept apart here.
Columns and labels:
[1] = cited from earlier work
[2] = tested on: cytochrome P450 3A enzyme; details: inhibitor of the cytochrome P450 3A enzyme; cited from earlier work
HIV-1 protease [3] = molecular target: T1, HIV-1 protease (Human immunodeficiency virus type 1 group M subtype B, UniProt P04585); experiment: biochemical
HIV-1IIIB (wild type) = experiment: Antiviral activity in cell culture (XTT assay in MT-4 cells); assay type: cell-based; details: Human immunodeficiency virus 1, MT4, read-out: ED50 (μM)
Method: Compounds of the invention are assayed for HIV activity, for example using multiple determinations with XTT in MT-4 cells (Weislow et al, J Nat Cancer Inst 1989, vol 81 no 8, 577 et seq), preferably including determinations in the presence of 40-50% human serum to indicate the contribution of protein binding. In short the XTT assay uses human T cell line MT4 cells grown in RPMI 1640 medium supplemented with 10% fetal calf serum (or 40-50% human serum as appropriate), penicillin and streptomycin seeded into 96 well microplates (2·10^4 cells/well) infected with 10-20 TCID50 per well of HIV-1IIIB (wild type) or mutant virus, such as those bearing RT Ile 100, Cys 181 or Asn 103 mutations. Serially diluted test compounds are added to respective wells and the culture incubated at 37° C. in a CO2 enriched atmosphere and the viability of cells is determined at day five or six with XTT vital dye. Results are typically presented as ED50 μM.
Exp. Med. Biol., 1998, 436, 99-103. […] Agents Chemother., 1997, 41, 2383-2388.

HIV-1 protease [4] = molecular target: T1, HIV-1 protease; details: Enzyme Inhibition

Compound: COC(=O)N[C@H](C(=O)N[C@@H](Cc1ccccc1)[C@@H](O)CN(Cc1ccc(-c2ccccn2)cc1)NC(=O)[C@@H](NC(=O)OC)C(C)(C)C)C(C)(C)C [Atazanavir, atazanavir]
- increase in exposure (saquinavir) ([1]; due to combination with atazanavir, multiple-dose pharmacology study): greater than 3 fold
- Ki [2]: 2.4 µM

Compound: CC(C)[C@H](NC(=O)OCc1ccccc1)C(=O)NN(Cc1ccccc1)C[C@@](O)(Cc1ccccc1)C(=O)N[C@H]1c2ccccc2C[C@H]1O [Compound 11, {(1S)-1-[N′-Benzyl-N′-((2S)-2-hydroxy-2-((1S,2R)-2-hydroxy-indan-1-ylcarbamoyl)-3-phenyl-propyl)-hydrazinocarbonyl]-2-methyl-propyl}-carbamic acid benzyl ester]
- Ki (HIV-1 protease [3]): 0.011 to 0.05 µM

Compound: CC(C)(C)[C@H](NC(=O)OCc1ccccc1)C(=O)NN(Cc1ccccc1)C[C@@](O)(Cc1ccccc1)C(=O)N[C@H]1c2ccccc2C[C@H]1O [Compound 13, {(1S)-1-[N′-Benzyl-N′-((2S)-2-hydroxy-2-((1S,2R)-2-hydroxy-indan-1-ylcarbamoyl)-3-phenyl-propyl)-hydrazinocarbonyl]-2,2-dimethyl-propyl}-carbamic acid benzyl ester]
- Ki (HIV-1 protease [3]): 0.011 to 0.05 µM

Compound: COC(=O)N[C@H](C(=O)NN(Cc1ccccc1)C[C@@](O)(Cc1ccccc1)C(=O)N[C@H]1c2ccccc2C[C@H]1O)C(C)C [Compound 14, {(1S)-1-[N′-Benzyl-N′-((2S)-2-hydroxy-2-((1S,2R)-2-hydroxy-indan-1-ylcarbamoyl)-3-phenyl-propyl)-hydrazinocarbonyl]-2-methyl-propyl}-carbamic acid methyl ester]
- EC50 (HIV-1IIIB (wild type)): 2 to 10 µM
- Ki (HIV-1 protease [3]): < 0.01 µM

Compound: COC(=O)N[C@H](C(=O)NN(Cc1ccccc1)C[C@@](O)(Cc1ccccc1)C(=O)N[C@H]1c2ccccc2C[C@H]1O)C(C)(C)C [Compound 15, {(1S)-1-[N′-Benzyl-N′-((2S)-2-hydroxy-2-((1S,2R)-2-hydroxy-indan-1-ylcarbamoyl)-3-phenyl-propyl)-hydrazinocarbonyl]-2,2-dimethyl-propyl}-carbamic acid methyl ester]
- EC50 (HIV-1IIIB (wild type)): 2 to 10 µM
- Ki (HIV-1 protease [3]): < 0.01 µM

Compound: CC(C)(C)[C@H](NS(C)(=O)=O)C(=O)NN(Cc1ccccc1)C[C@@](O)(Cc1ccccc1)C(=O)N[C@H]1c2ccccc2C[C@H]1O [Compound 17, (2S)-2-Benzyl-3-[N-benzyl-N′-((2S)-2-methanesulfonylamino-3,3-dimethyl-butyryl)-hydrazino]-2-hydroxy-N-((1S,2R)-2-hydroxy-indan-1-yl)-propionamide]
- Ki (HIV-1 protease [3]): 0.05 to 0.1 µM

Compound: CC(C)(C)[C@H](NC(=O)NCc1ccccc1)C(=O)NN(Cc1ccccc1)C[C@@](O)(Cc1ccccc1)C(=O)N[C@H]1c2ccccc2C[C@H]1O [Compound 18, (2S)-2-Benzyl-3-{N-Benzyl-N′-[(2S)-2-(3-benzyl-ureido)-3,3-dimethyl-butyryl]-hydrazino}-2-hydroxy-N-((1S,2R)-2-hydroxy-indan-1-yl)-propionamide]
- Ki (HIV-1 protease [3]): 0.011 to 0.05 µM

Compound: COC(=O)N[C@H](C(=O)NN(Cc1ccc(Br)cc1)C[C@@](O)(Cc1ccccc1)C(=O)N[C@H]1c2ccccc2C[C@H]1O)C(C)(C)C [Compound 19, {(1S)-1-[N′-(4-Bromo-benzyl)-N′-((2S)-2-hydroxy-2-((1S,2R)-2-hydroxy-indan-1-ylcarbamoyl)-3-phenyl-propyl)-hydrazinocarbonyl]-2,2-dimethyl-propyl}-carbamic acid methyl ester]
- EC50 (HIV-1IIIB (wild type)): < 2 µM

Compound: Cc1c(O)cccc1C(=O)N[C@@H](CSc1ccccc1)[C@H](O)CN1C[C@H]2CCCC[C@H]2C[C@H]1C(=O)NC(C)(C)C [nelfinavir]
- increase the exposure of saquinavir ([1]; saquinavir dosed at 1200 mg thrice-daily (TID), at steady-state): 392%

Compound: {(1S)-1-[N′-(4-Bromo-benzyl)-N′-((2S)-2-hydroxy-2-((1S,2R)-2-hydroxy-indan-1-ylcarbamoyl)-3-phenyl-propyl)-hydrazinocarbonyl]-2-methyl-propyl}-carbamic acid benzyl ester [Compound 20]
- Ki (HIV-1 protease [4]): 0.011 to 0.05 µM

Source: US7807677B2, “HIV protease inhibitors” (Medivir AB, priority 2005, dated 2010)
